{
  "source": "patent US11628160B2",
  "about": "“Compositions and methods for treating brain injury” (Azevan Pharmaceuticals, Inc., priority 2017, dated 2023)",
  "key": {"human V1a receptor": {"molecular_target": "T1, human V1a receptor (Homo sapiens, UniProt P37288)", "T1 construct": "host or cells: CHO cells", "T1 sequence (P37288 whole entry)": "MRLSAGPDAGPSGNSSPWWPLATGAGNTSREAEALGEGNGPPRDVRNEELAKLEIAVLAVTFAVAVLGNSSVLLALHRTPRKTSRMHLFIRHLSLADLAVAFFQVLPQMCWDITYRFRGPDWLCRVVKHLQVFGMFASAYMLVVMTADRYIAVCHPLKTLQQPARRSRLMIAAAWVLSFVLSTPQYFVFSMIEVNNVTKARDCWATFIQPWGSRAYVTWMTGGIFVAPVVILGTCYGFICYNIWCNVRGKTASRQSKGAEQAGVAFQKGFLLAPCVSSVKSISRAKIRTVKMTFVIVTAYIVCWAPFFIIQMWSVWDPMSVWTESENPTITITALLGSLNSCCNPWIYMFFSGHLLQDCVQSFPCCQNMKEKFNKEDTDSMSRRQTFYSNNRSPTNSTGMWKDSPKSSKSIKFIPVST", "test": "Human vasopressin V1a receptor binding assay", "conditions": "selectivity table; read-out: inhibition data Ki, V1a", "method_in_brief": "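Whole CHO cells expressing human V1a incubated with 1 nM 3H-AVP and 10-fold compound dilutions in 25 mM Hepes, 0.25% BSA, DMEM pH 7.0 for 45 min at 37 °C. Nonspecific binding with 100 nM unlabelled AVP. Cells SDS-lysed, scintillation counted; IC50 by curve fitting.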"}, "Male Sprague Dawley rats [1]": {"tested_on": "Male Sprague Dawley rats", "test": "Resting state functional connectivity (fMRI)", "assay_type": "in vivo, rat", "conditions": "Treatment group", "from_the_text": "EXAMPLE. Resting state functional connectivity. Resting-state fMRI scan is collected using spin-echo triple-shot EPI sequence (imaging parameters: matrix size=96×96×20, TR/TE=3000/15 msec, voxel size=[…], slice thickness=1 mm. Preprocessing is illustratively accomplished by combining Analysis of Functional NeuroImages (AFNI_17.1.12, http://afni.nimh.nih.gov/afni/), FMRIB Software library (FSL, v5.0.9, http://fsl.fmrib.ox.ac.uk/fsl/), Deformable Registration via Attribute Matching and Mutual-Saliency Weighting (DRAMMS 1.4.1, https://www.cbica.upenn.edu/sbia/software/dramms/index.html) and MATLAB (Mathworks, Natick, Mass.). Brain tissue masks for resting-state functional images are manually drawn using 3DSlicer (https://www.slicer.org/) and applied for skull-stripping. Normalization is completed by registering functional data to the MRI Rat Brain Template (Ekam Solutions LLC, Boston, Mass.) using affine registration through DRAMMS. The region-to-region functional connectivity method is illustratively performed to measure the correlations in spontaneous BOLD fluctuations. A network is comprised of nodes and edges; nodes being the brain region of interest (ROI) and edges being the connections between regions. Nodes are defined using the ROIs segmented from an appropriate MRI RAT Brain Atlas. Illustratively, 171 nodes are defined. Voxel time series data are averaged in each node based on the residual images using the nuisance regression procedure. Pearson's correlation coefficients across all pairs of nodes (14535 pairs for 171 nodes) are computed for each subject among all three groups to assess the interregional temporal correlations. The r-values (ranging from −1 to 1) are z-transformed using the Fisher's Z transform to improve normality. For 171 nodes, 171×171 symmetric connectivity matrices are constructed with each entry representing the strength of edge. Group-level analysis is performed to look at the functional connectivity in controls, one hit and three hit groups. The resulting Z-score matrices from one-group t-tests are clustered using the K-nearest neighbors clustering method to identify how nodes cluster together and form resting state networks. A Z-score threshold of |Z|=2.3 is applied to remove spurious or weak node connections for visualization purposes.\nBeginning on postnatal (P)70, animals are divided into 3 groups (n=6-7/group; Sham Control Group (Control, CG), Injury Group (IG), and Treatment Group (TG) and begin their head impact, and drug regimens. All groups are anaesthetized with 4% isoflurane in oxygen, and Injury group and Treatment group receive the first of two total head impacts) using a custom setup from Animal Imaging Research (AIR; Holden, Mass.) on P70. […]"}, "Male Sprague Dawley rats [2]": {"tested_on": "Male Sprague Dawley rats", "test": "Motor behavior (balance beam, rotarod)", "assay_type": "in vivo, rat", "protocol": "EXAMPLE. Momentum exchange impact model. This model features several advantageous translational differences over some head injury models, such as the controlled cortical impact injury model. For example, the head, neck and body can move with impact, and the velocity of head movement and energy transfer can be calculated and scaled mild to provide range from moderate to severe concussions. Studies are conducted with moderate impacts with neuroradiological evidence of contusions. Male rats are concussed twice with one day. Additional details are described in Viano et al., “Evaluation of three animal models for concussion and serious brain injury” Ann Biomed Eng. 40(1):213-26 (2012). […] Sham non-concussed test animals are given vehicle or test compound. Test animals are treated twice daily for 5 consecutive days. At two weeks post concussion cognitive behaviors are assessed, using for example, the Barnes maze and/or novel recognition models. In addition, motor behaviors are assessed, using for example, beam walk and/or rotarod tests. In each case, neuroradiological MRI is also performed. […]"}},
  "data": [
    {"smiles": "C[C@@H](NC(=O)[C@@H](CC(=O)N1CCC(N2CCCCC2)CC1)N1C(=O)[C@@H](N2C(=O)OC[C@@H]2c2ccccc2)[C@H]1/C=C/c1cccc(I)c1)c1ccccc1", "note": "[Example 266]", "values": [
      {"measurement": "Ki", "setting": "human V1a receptor", "result": 1.1, "unit": "nM"},
      {"measurement": "connectivity of hippocampus, Area M", "setting": "Male Sprague Dawley rats [1]", "result": "hyperconnectivity compared to Injury group and Control group"},
      {"measurement": "connectivity of ventral hippocampus, Area G", "setting": "Male Sprague Dawley rats [1]", "result": "hyperconnectivity compared to Injury group and Control group"},
      {"measurement": "functional connectivity in network circuitry associated with learning, cognition, memory, and attention", "setting": "Male Sprague Dawley rats [1]; even compared to Control group", "result": "enhanced functional connectivity"},
      {"measurement": "resting state functional connectivity network", "setting": "Male Sprague Dawley rats [1]; 166 brain areas", "result": "hyperconnectivity"},
      {"measurement": "rotarod latency to fall", "setting": "Male Sprague Dawley rats [2]; Treatment group, Injury group 69.8±5.5, Control group 105.4±7.6, P=0.2", "result": "84.0 ± 9.0", "unit": "s"},
      {"measurement": "overall motor behavior, Control vs Treatment group", "setting": "Male Sprague Dawley rats [2]; concussed rats, IP 10 mg/kg twice daily 5 days", "result": "not a significant difference in overall motor behavior"}
    ]}
  ]
}
